# According to patent publication US20250136607A1 (REGOR PHARMACEUTICALS, INC., priority 2021, published 2025):
# Target: Protein arginine deiminase 4 (PAD4) (Homo sapiens, UniProt Q9UM07)
# Experiment: PAD4 ammonia release assay
# Type: biochemical
# Details: PAD4 activity comparison; read-out: PAD4 Ammonia assay IC50
# Procedure: 1) Compound preparation: The compounds were diluted to 80× final concentrations. 2) The compounds were transferred to a 384-well assay plate by Tecan. DMSO: 1.25%. 3) Preparation of 1×Assay buffer: 100 mM HEPES, PH=8.0, 2 mM CaCl2, 50 mM NaCl, 0.1 mM TCEP, 0.6 mg/ml BSA. 4) 2× enzyme working solution (PAD4:20 nM) was prepared with assay buffer, and 10 μL of the obtained working solution were added to the 384-well assay plates. 5) The plate was centrifuged at 1000 rpm for 1 min. 6) After the centrifuge, the plate was incubated at RT for 15 min. 7) 2×BAEE substrate mix (600 μM) was prepared with assay buffer and 10 μL of the obtained substrate mix were added to each well. 8) The plate was centrifuged at 1000 rpm for 1 min and then incubated at RT for 60 min. 9) 1.5× detection mix (DTT:4 mM, OPA:3 mM, EDTA: 30 mM) was prepared, and 10 μL of the mix were added to the plate. 10) The plate was centrifuged at 1000 rpm for 1 min and then incubated at RT for 120 min. 11) The 384-well plates were placed into the Envision (PerkinElmer) and the assay data were collected.
# The percent (%) inhibition at each concentration of compound was calculated based on and relative to the signal in the HPE (50 μM ref. compound) and ZPE (1.25% DMSO) wells included within each assay plate. The HPE worked as 100% inhibition, and the ZPE worked as 0% inhibition. The concentrations and % inhibition values for tested compounds were plotted and the concentration of compound required for 50% inhibition (IC50) was determined with a Four-parameter logistic dose response equation. The endpoint value (IC50) for the reference compound was evaluated in each experiment as a quality control measure. If the endpoint value is within 3-fold of the expected value, then the experiment quality is deemed as acceptable. The results are provided in Table 1 below. ≤0.1 μM=“++++”; >0.1 and ≤0.5 μM=“+++”; >0.5 and ≤5.0 μM=“++”; >5.0 μM=“+”. “−”=not available.
# Chain of Protein arginine deiminase 4 (PAD4) (Q9UM07 whole entry): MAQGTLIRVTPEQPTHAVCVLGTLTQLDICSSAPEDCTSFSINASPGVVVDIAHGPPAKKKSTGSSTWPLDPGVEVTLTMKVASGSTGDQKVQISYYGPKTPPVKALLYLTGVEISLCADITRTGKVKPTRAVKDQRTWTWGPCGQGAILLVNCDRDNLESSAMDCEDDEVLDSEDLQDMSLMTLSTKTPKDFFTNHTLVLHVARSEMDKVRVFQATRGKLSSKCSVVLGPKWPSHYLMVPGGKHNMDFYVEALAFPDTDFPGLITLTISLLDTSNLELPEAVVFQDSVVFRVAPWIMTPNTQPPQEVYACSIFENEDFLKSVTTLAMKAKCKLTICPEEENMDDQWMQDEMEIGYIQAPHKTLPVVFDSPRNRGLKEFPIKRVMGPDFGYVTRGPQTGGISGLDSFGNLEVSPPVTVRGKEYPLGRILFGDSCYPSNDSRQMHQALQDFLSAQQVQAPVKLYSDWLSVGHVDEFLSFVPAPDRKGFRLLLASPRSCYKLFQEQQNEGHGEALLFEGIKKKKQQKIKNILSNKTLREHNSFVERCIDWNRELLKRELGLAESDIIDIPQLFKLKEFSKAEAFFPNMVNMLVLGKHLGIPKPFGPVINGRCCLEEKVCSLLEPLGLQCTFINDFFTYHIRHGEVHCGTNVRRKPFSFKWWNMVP
row,IC50,SMILES
1,2.6 µM,"COc1cc(C(=O)N2CCC[C@@H](N)C2)cc2nc(-c3cc4cccc5c4n3C(C)CN5)n(C)c12 (stereo partly drawn) [Example 65, ((R)-3-aminopiperidin-1-yl)(7-methoxy-1-methyl-2-(3-methyl-2,3-dihydro-1H-pyrrolo[1,2,3-de]quinoxalin-5-yl)-1H-benzo[d]imidazol-5-yl)methanone]"

# Same assay, conditions: PAD4 ammonia release assay, BAEE substrate, 60 min at RT; read-out: Average IC50 Abs
row,IC50,SMILES
1,> 5 µM,"COc1cc(C(=O)N2C[C@H](N)C3(CC3)C2)cc2nc(-c3cc4cccc5c4n3CCN5CCCO)n(CC3CC3)c12 [Example 60, (R)-(7-amino-5-azaspiro[2.4]heptan-5-yl)(1-(cyclopropylmethyl)-2-(1-(3-hydroxypropyl)-2,3-dihydro-1H-pyrrolo[1,2,3-de]quinoxalin-5-yl)-7-methoxy-1H-benzo[d]imidazol-5-yl)methanone]"
2,> 5 µM,"COc1cc(C(=O)N2C[C@@H](N)C3(CC3)C2)cc2nc(-c3cc4cccc5c4n3CCN5CCCO)n(CC3CC3)c12 [Example 61, (S)-(7-amino-5-azaspiro[2.4]heptan-5-yl)(1-(cyclopropylmethyl)-2-(1-(3-hydroxypropyl)-2,3-dihydro-1H-pyrrolo[1,2,3-de]quinoxalin-5-yl)-7-methoxy-1H-benzo[d]imidazol-5-yl)methanone]"
3,> 5 µM,"COc1cc(-n2cc3c(n2)CCC(N)C3)cc2nc(-c3cc4cccc5c4n3CCN5CCCO)n(C)c12 (stereo not drawn) [Example 62, 3-(5-(5-(5-amino-4,5,6,7-tetrahydro-2H-indazol-2-yl)-7-methoxy-1-methyl-1H-benzo[d]imidazol-2-yl)-2,3-dihydro-1H-pyrrolo[1,2,3-de]quinoxalin-1-yl)propan-1-ol]"
4,> 5 µM,"COc1cc(C(=O)N2C[C@H](N)C[C@@H](F)C2)cc2nc(-c3cc4cccc5c4n3CCN5CCCO)n(OC)c12 [Example 63, ((3R,5R)-3-amino-5-fluoropiperidin-1-yl)(2-(1-(3-hydroxypropyl)-2,3-dihydro-1H-pyrrolo[1,2,3-de]quinoxalin-5-yl)-1,7-dimethoxy-1H-benzo[d]imidazol-5-yl)methanone]"
5,0.5 to 5 µM,"COc1cc(C(=O)N2CCC[C@@H](N)C2)cc2nc(-c3cc4cccc5c4n3C(C)CN5)n(C)c12 (stereo partly drawn) [Example 65, ((R)-3-aminopiperidin-1-yl)(7-methoxy-1-methyl-2-(3-methyl-2,3-dihydro-1H-pyrrolo[1,2,3-de]quinoxalin-5-yl)-1H-benzo[d]imidazol-5-yl)methanone]"
6,0.5 to 5 µM,"CCn1c(-c2cc3cccc4c3n2C(C)CN4CCCO)nc2cc(C(=O)N3C[C@H](N)C[C@@H](F)C3)cc(OC)c21 (stereo partly drawn) [Example 66, ((3R,5R)-3-amino-5-fluoropiperidin-1-yl)(1-ethyl-2-(1-(3-hydroxypropyl)-3-methyl-2,3-dihydro-1H-pyrrolo[1,2,3-de]quinoxalin-5-yl)-7-methoxy-1H-benzo[d]imidazol-5-yl)methanone]"
7,> 5 µM,"CCn1c(-c2cc3cccc4c3n2C(C)CN4CCCO)nc2cc(C(=O)N3C[C@H]4CC[C@@H]3[C@@H]4NC(=O)OC(C)(C)C)cc(OC)c21 (stereo partly drawn) [Example 67, tert-butyl ((1R,4R,7R)-2-(1-ethyl-2-(1-(3-hydroxypropyl)-3-methyl-2,3-dihydro-1H-pyrrolo[1,2,3-de]quinoxalin-5-yl)-7-methoxy-1H-benzo[d]imidazole-5-carbonyl)-2-azabicyclo[2.2.1]heptan-7-yl)carbamate]"
8,> 5 µM,"CC[C@@H]1CN(CCCO)c2cccc3cc(-c4nc5cc(C(=O)N6C[C@H]7CC[C@@H]6[C@@H]7N)cc(F)c5n4C)n1c23 [Example 70, ((1R,4R,7R)-7-amino-2-azabicyclo[2.2.1]heptan-2-yl)(2-((R)-3-ethyl-1-(3-hydroxypropyl)-2,3-dihydro-1H-pyrrolo[1,2,3-de]quinoxalin-5-yl)-7-fluoro-1-methyl-1H-benzo[d]imidazol-5-yl)methanone]"
9,> 5 µM,"CC[C@@H]1CNc2cccc3cc(-c4nc5cc(C(=O)N6C[C@H]7CC[C@@H]6[C@@H]7N)cc(F)c5n4C)n1c23 [Example 73, ((1R,4R,7R)-7-amino-2-azabicyclo[2.2.1]heptan-2-yl)(2-((R)-3-ethyl-2,3-dihydro-1H-pyrrolo[1,2,3-de]quinoxalin-5-yl)-7-fluoro-1-methyl-1H-benzo[d]imidazol-5-yl)methanone]"
10,0.1 to 0.5 µM,"CCC1CN(CCCO)c2cccc3cc(-c4nc5cc(C(=O)N6C[C@H]7CC[C@@H]6[C@@H]7N)cc(F)c5n4CC4CC4)n1c23 (stereo partly drawn) [Example 77, ((1R,4R,7R)-7-amino-2-azabicyclo[2.2.1]heptan-2-yl)(1-(cyclopropylmethyl)-2-(3-ethyl-1-(3-hydroxypropyl)-2,3-dihydro-1H-pyrrolo[1,2,3-de]quinoxalin-5-yl)-7-fluoro-1H-benzo[d]imidazol-5-yl)methanone]"
11,0.5 to 5 µM,"CCC1CN(CCCO)c2cccc3cc(-c4nc5cc(C(=O)N6C[C@H]7CC[C@@H]6[C@@H]7N)c(F)c(F)c5n4C)n1c23 (stereo partly drawn) [Example 78, ((1R,4R,7R)-7-amino-2-azabicyclo[2.2.1]heptan-2-yl)(2-(3-ethyl-1-(3-hydroxypropyl)-2,3-dihydro-1H-pyrrolo[1,2,3-de]quinoxalin-5-yl)-6,7-difluoro-1-methyl-1H-benzo[d]imidazol-5-yl)methanone]"
12,0.1 to 0.5 µM,"CCC1CN(CCO)c2cccc3cc(-c4nc5cc(C(=O)N6C[C@H](N)C[C@@H](F)C6)cc(OC)c5n4C)n1c23 (stereo partly drawn) [Example 79, ((3R,5R)-3-amino-5-fluoropiperidin-1-yl)(2-(3-ethyl-1-(2-hydroxyethyl)-2,3-dihydro-1H-pyrrolo[1,2,3-de]quinoxalin-5-yl)-7-methoxy-1-methyl-1H-benzo[d]imidazol-5-yl)methanone]"
13,0.1 to 0.5 µM,"CCC1CN(CCC(C)(C)O)c2cccc3cc(-c4nc5cc(C(=O)N6C[C@H](N)C[C@@H](F)C6)cc(OC)c5n4C)n1c23 (stereo partly drawn) [Example 83, ((3R,5R)-3-amino-5-fluoropiperidin-1-yl)(2-(3-ethyl-1-(3-hydroxy-3-methylbutyl)-2,3-dihydro-1H-pyrrolo[1,2,3-de]quinoxalin-5-yl)-7-methoxy-1-methyl-1H-benzo[d]imidazol-5-yl)methanon]"
14,0.1 to 0.5 µM,"CCC1CN(CCCOC)c2cccc3cc(-c4nc5cc(C(=O)N6C[C@H](N)C[C@@H](F)C6)cc(OC)c5n4C)n1c23 (stereo partly drawn) [Example 84, ((3R,5R)-3-amino-5-fluoropiperidin-1-yl)(2-(3-ethyl-1-(3-methoxypropyl)-2,3-dihydro-1H-pyrrolo[1,2,3-de]quinoxalin-5-yl)-7-methoxy-1-methyl-1H-benzo[d]imidazol-5-yl)methanone]"
15,0.1 to 0.5 µM,"CCC1CN(CC(C)(C)CO)c2cccc3cc(-c4nc5cc(C(=O)N6C[C@H]7CC[C@@H]6[C@@H]7N)cc(F)c5n4C)n1c23 (stereo partly drawn) [Example 89, ((1R,4R,7R)-7-amino-2-azabicyclo[2.2.1]heptan-2-yl)(2-(3-ethyl-1-(3-hydroxy-2,2-dimethylpropyl)-2,3-dihydro-1H-pyrrolo[1,2,3-de]quinoxalin-5-yl)-7-fluoro-1-methyl-1H-benzo[d]imidazol-5-yl)methanone]"
16,0.1 to 0.5 µM,"C#CCn1c(-c2cc3cccc4c3n2C(CC)CN4CCCO)nc2cc(C(=O)N3C[C@H]4CC[C@@H]3[C@@H]4N)cc(OC)c21 (stereo partly drawn) [Example 90, ((1R,4R,7R)-7-amino-2-azabicyclo[2.2.1]heptan-2-yl)(2-(3-ethyl-1-(3-hydroxypropyl)-2,3-dihydro-1H-pyrrolo[1,2,3-de]quinoxalin-5-yl)-7-methoxy-1-(prop-2-yn-1-yl)-1H-benzo[d]imidazol-5-yl)methanone]"
17,0.1 to 0.5 µM,"CCC1CN(CCCO)c2cccc3cc(-c4nc5cc(C(=O)N6C[C@H]7CC[C@@H]6[C@@H]7N)cc(F)c5n4Cc4ccco4)n1c23 (stereo partly drawn) [Example 93, ((1R,4R,7R)-7-amino-2-azabicyclo[2.2.1]heptan-2-yl)(2-(3-ethyl-1-(3-hydroxypropyl)-2,3-dihydro-1H-pyrrolo[1,2,3-de]quinoxalin-5-yl)-7-fluoro-1-(furan-2-ylmethyl)-1H-benzo[d]imidazol-5-yl)methanone]"
18,> 5 µM,"CC[C@@H]1CN(CCCO)c2cccc3cc(-c4nc5cc(C(=O)N6C[C@H]7CC[C@@H]6[C@@H]7N)cc(F)c5n4CC)n1c23 [Example 97, ((1R,4R,7R)-7-amino-2-azabicyclo[2.2.1]heptan-2-yl)(1-ethyl-2-((R)-3-ethyl-1-(3-hydroxypropyl)-2,3-dihydro-1H-pyrrolo[1,2,3-de]quinoxalin-5-yl)-7-fluoro-1H-benzo[d]imidazol-5-yl)methanone]"
19,≤ 0.1 µM,"CC[C@H]1CN(CCCO)c2cccc3cc(-c4nc5cc(C(=O)N6C[C@H]7CC[C@@H]6[C@@H]7N)cc(F)c5n4CC)n1c23 [Example 98, ((1R,4R,7R)-7-amino-2-azabicyclo[2.2.1]heptan-2-yl)(1-ethyl-2-((S)-3-ethyl-1-(3-hydroxypropyl)-2,3-dihydro-1H-pyrrolo[1,2,3-de]quinoxalin-5-yl)-7-fluoro-1H-benzo[d]imidazol-5-yl)methanone]"

# Same assay, conditions: SFC-separated stereoisomer pairs
row,relative potency of separated isomers in the PAD4 biochemical assay,SMILES
1,more potent than Example 97,"CC[C@H]1CN(CCCO)c2cccc3cc(-c4nc5cc(C(=O)N6C[C@H]7CC[C@@H]6[C@@H]7N)cc(F)c5n4CC)n1c23 [Example 98, ((1R,4R,7R)-7-amino-2-azabicyclo[2.2.1]heptan-2-yl)(1-ethyl-2-((S)-3-ethyl-1-(3-hydroxypropyl)-2,3-dihydro-1H-pyrrolo[1,2,3-de]quinoxalin-5-yl)-7-fluoro-1H-benzo[d]imidazol-5-yl)methanone]"
